Measurements from ChEMBL document CHEMBL3351789, “Triazolopyridines as selective JAK1 inhibitors: from hit identification to GLPG0634” (J Med Chem, 2014).

How the values were obtained:
[1] = biological target: Tyrosine-protein kinase JAK1 (Homo sapiens, UniProt P23458); assay: Inhibition of human recombinant JAK1
[2] = species: Homo sapiens; assay: Selectivity index, ratio of IC50 for human recombinant JAK2 to IC50 for human recombinant JAK1
[3] = species: Homo sapiens; assay: Selectivity index, ratio of IC50 for human recombinant JAK3 to IC50 for human recombinant JAK1
[4] = species: Homo sapiens; assay: Selectivity index, ratio of IC50 for human recombinant TYK2 to IC50 for human recombinant JAK1

Chain of Tyrosine-protein kinase JAK1 (P23458 whole entry): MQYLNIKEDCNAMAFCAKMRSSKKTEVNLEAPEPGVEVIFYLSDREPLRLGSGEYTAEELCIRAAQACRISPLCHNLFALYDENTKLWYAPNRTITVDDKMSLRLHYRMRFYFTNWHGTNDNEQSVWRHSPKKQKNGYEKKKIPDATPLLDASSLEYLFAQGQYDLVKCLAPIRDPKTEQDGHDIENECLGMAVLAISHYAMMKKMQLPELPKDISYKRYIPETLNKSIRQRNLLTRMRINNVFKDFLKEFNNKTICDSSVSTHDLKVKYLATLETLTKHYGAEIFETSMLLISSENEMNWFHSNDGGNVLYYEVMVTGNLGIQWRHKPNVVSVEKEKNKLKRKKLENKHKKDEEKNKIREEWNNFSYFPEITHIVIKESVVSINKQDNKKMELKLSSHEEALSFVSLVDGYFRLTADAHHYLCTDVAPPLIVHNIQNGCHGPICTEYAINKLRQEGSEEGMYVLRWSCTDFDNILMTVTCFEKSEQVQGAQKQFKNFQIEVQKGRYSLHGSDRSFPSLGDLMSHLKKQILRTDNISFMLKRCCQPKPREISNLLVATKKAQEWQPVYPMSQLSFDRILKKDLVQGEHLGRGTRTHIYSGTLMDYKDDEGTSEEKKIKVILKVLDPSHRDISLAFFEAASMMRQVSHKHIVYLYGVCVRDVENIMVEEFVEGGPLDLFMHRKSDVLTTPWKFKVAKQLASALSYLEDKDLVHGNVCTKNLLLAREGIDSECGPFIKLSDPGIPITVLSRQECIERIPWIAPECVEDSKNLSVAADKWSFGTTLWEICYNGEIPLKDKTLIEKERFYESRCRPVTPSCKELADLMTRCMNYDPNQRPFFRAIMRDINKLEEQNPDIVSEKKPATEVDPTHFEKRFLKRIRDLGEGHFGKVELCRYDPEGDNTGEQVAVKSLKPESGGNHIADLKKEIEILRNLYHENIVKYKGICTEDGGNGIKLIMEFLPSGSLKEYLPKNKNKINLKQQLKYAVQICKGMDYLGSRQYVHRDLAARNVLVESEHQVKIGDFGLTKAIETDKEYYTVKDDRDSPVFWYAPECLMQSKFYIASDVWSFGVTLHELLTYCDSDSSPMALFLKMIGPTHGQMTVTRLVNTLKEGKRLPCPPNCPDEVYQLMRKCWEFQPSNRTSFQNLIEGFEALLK

Row | SMILES | IC50 ([1]; read-out: IC50) [µM] | Ratio IC50 [2] | Ratio IC50 [3] | Ratio IC50 [4] | IC50 [1]
1 | COc1ccc(-c2cccc3nc(NC(C)=O)nn23)cc1 | > 4 |  |  |  | 
2 | COc1ccc(-c2cccc3nc(N(C)C)nn23)cc1 | > 10 |  |  |  | 
3 | CN1CCN(Cc2ccc(-c3cccc4nc(NC(=O)C5CC5)nn34)cc2)CC1 | > 4 |  |  |  | 
4 | CCOc1ccc(-c2c(OC)ccc3nc(NC(=O)C4CC4)nn23)cc1 | 3.01 | > 1 |  |  | 
5 | COc1ccc(-c2cccc3nc(NCC4CC4)nn23)cc1 | > 10 |  |  |  | 
6 | COc1ccc(-c2cccc3nc(N)nn23)cc1 | 3.06 | 0.6 |  |  | 
7 | CC(C)(C)OCc1ccccc1-c1cccc2nc(NC(=O)C3CC3)nn12 | > 10 |  |  |  | 
8 | COc1ccc(-c2cccc3nc(-c4cccnc4)nn23)cc1 | > 10 |  |  |  | 
9 | O=C(Nc1nc2nccc(-c3ccccc3)n2n1)C1CC1 |  |  |  |  | Not Active
10 | COc1ccc(-c2cccc3nc(N4CCCCC4)nn23)cc1 | > 10 |  |  |  | 
11 | COc1ccc(-c2cc(C(F)(F)F)cn3nc(NC(=O)C4CC4)nc23)cc1 |  |  |  |  | Not Active
12 | COc1ccc(-c2cccc3nc(NC(=O)c4ccccc4)nn23)cc1 | > 10 |  |  |  | 
13 | COc1ccc(-c2cccc3nc(NS(=O)(=O)C4CC4)nn23)cc1 | 5.74 |  |  |  | 
14 | CCOc1ccc(-c2cncc3nc(NC(=O)C4CC4)nn23)cc1 | 3.1 | 1 |  |  | 
15 | COc1ccc(-c2cccc3nc(N(C)C(=O)C4CC4)nn23)cc1 | > 10 |  |  |  | 
16 | COc1ccc(-c2cccc3nc(NC(=O)C4(C)CC4)nn23)cc1 | > 10 |  |  |  | 
17 | COc1ccc(-c2cccc3nc(NC(=O)C(C)C)nn23)cc1 | > 10 |  |  |  | 

Results, then the molecule that gave them:

Row | IC50 ([1]; read-out: IC50) [µM] | Ratio IC50 [2] | Ratio IC50 [3] | Ratio IC50 [4] | IC50 [1] | SMILES
18 | 0.156 | 3.1 | 7.4 | 28.2 |  | O=C(Nc1nc2cccc(-c3ccc(Cl)cc3)n2n1)C1CC1
19 | 0.142 | 1.1 | 6.7 | 2.4 |  | O=C(Nc1nc2cccc(-c3cccc(Cl)c3)n2n1)C1CC1
20 | 1.35 | 1.1 | 2.1 | > 3 |  | O=C(Nc1nc2cccc(-c3cn[nH]c3)n2n1)C1CC1
21 | 0.975 | 2.1 | > 4.1 | > 4.1 |  | COc1ncc(-c2cccc3nc(NC(=O)C4CC4)nn23)cn1
22 | 0.067 | 2.2 |  |  |  | CCOc1ccc(-c2cccn3nc(NC(=O)C4CC4)nc23)cc1
23 | 0.0028 | 0.9 |  |  |  | COc1ccc(-c2cccc3nc(Nc4ccc(NC(C)=O)cc4)nn23)cc1
24 | 0.547 | 1.5 | 4.4 | 6.2 |  | COc1ccc(-c2cccc3nc(NC(=O)C4CC4)nn23)cn1
25 | 0.147 | 7.5 |  |  |  | N#Cc1ccc(OCC2CN(c3ccc(-c4cccc5nc(NC(=O)C6CC6)nn45)cc3)C2)cc1
26 | 0.572 | 0.9 | 3.8 | 2.8 |  | COCc1cccc(-c2cccc3nc(NC(=O)C4CC4)nn23)c1
27 | 0.418 | 1.5 |  |  |  | CCOc1ccc(-c2nccc3nc(NC(=O)C4CC4)nn23)cc1
28 | 2.55 | 0.7 | 1.5 | > 1.6 |  | O=C(Nc1nc2cccc(-c3cccc4ncccc34)n2n1)C1CC1
29 | 0.027 | 2 |  |  |  | CCOc1ccc(-c2cccc3nc(NC(=O)C4CC4)nn23)cc1
30 | 0.184 | 2.3 | 7.1 | 4.1 |  | O=C(Nc1nc2cccc(-c3ccccc3)n2n1)C1CC1
31 | 0.413 | 0.7 |  |  |  | CNC(=O)Nc1nc2cccc(-c3ccc(OC)cc3)n2n1
32 | 0.371 | 1.5 | 2 | 2.8 |  | COc1ccccc1-c1cccc2nc(NC(=O)C3CC3)nn12
33 | 1.98 | 0.5 |  |  |  | CCC(=O)Nc1nc2cccc(-c3ccc(OC)cc3)n2n1
34 | 0.103 | 1 | 3 | 18 |  | O=C(Nc1nc2cccc(-c3cccc(OCc4ccccc4)c3)n2n1)C1CC1
